Test results as given in US9247759B2, “Identification of human T2R receptors that respond to bitter compounds that elicit the bitter taste in compositions, and the use thereof in assays to identify compounds that inhibit (block) bitter taste in compositions and use thereof” (SENOMYX, INC., priority 2007, dated 2016).
Like-named read-outs stand apart in the source and are kept apart here.

What was measured:
hT2R14 [1] = target: T1, hT2R14 (Homo sapiens (Human), UniProt Q9NYV8); assay: hT2R14 antagonist high-throughput FLIPR assay, stable cell line with G16g44, agonist aristolochic acid; type: cell-based
Summary of the method: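 HEK293 cells stably expressing hT2R14 with chimeric G16g44 were stimulated with aristolochic acid (3 μM), giving 70-80% of maximal receptor activity. Test compounds were added together with the agonist, and antagonism was read as fluorescent calcium signal on FLIPR.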

hT2R3 = hT2R3 (Homo sapiens (Human), UniProt Q9NYW6); assay: hT2R panel inhibition, transient HEK293 G16g44, agonist Chloroquine pH6.5 50 μM; type: cell-based; settings: HEK293, compound at 25 μM; receptor activated to EC80 with the corresponding agonist; read-out: screening result against bitter receptor 3
Summary of the method: (§1)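 The test compound's selectivity was profiled by challenging each transiently expressed human T2R with its activating bitter ligand at an EC80 concentration, inhibition being the reduction of receptor signalling it produced.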

hT2R4 = hT2R4 (Homo sapiens (Human), UniProt Q9NYW5); assay: hT2R panel inhibition, transient HEK293 G16g44, agonist Chloroquine pH6.5 5 mM; type: cell-based; settings: HEK293, compound at 25 μM; receptor activated to EC80 with the corresponding agonist; class symbols; read-out: screening result against bitter receptor 4
Summary of the method: as §1

hT2R5 = hT2R5 (Homo sapiens (Human), UniProt Q9NYW4); assay: hT2R panel inhibition, transient HEK293 G16g44, agonist Picoline 10 mM; type: cell-based; settings: HEK293, compound at 25 μM; receptor activated to EC80 with the corresponding agonist; read-out: screening result against bitter receptor 5
Summary of the method: as §1

hT2R7 = hT2R7 (Homo sapiens (Human), UniProt Q9NYW3); assay: hT2R panel inhibition, transient HEK293 G16g44, agonist Chloroquine pH6.5 10 mM; type: cell-based; settings: HEK293, compound at 25 μM; receptor activated to EC80 with the corresponding agonist; read-out: screening result against bitter receptor 7
Summary of the method: as §1

hT2R9 = hT2R9 (Homo sapiens (Human), UniProt Q9NYW1); assay: hT2R panel inhibition, transient HEK293 G16g44, agonist Ofloxacin 1 mM; type: cell-based; settings: HEK293, compound at 25 μM; receptor activated to EC80 with the corresponding agonist; read-out: screening result against bitter receptor 9
Experimental: Specifically, in order to evaluate the inhibitory selectivity of the Compound C compound, this compound was tested against 22 human T2Rs which were deorphaned by Senomyx. These receptors and the bitter ligands that activate these human T2Rs are reported in earlier patent applications which are incorporated by reference herein. These 22 human T2Rs are hT2R1, 3, 4, 5, 7, 8, 9, 10, 13, 14, 16, 44, 51, 54, 55, 61, 63, 64, 65, 67, 71 and 75. The amino acid and nucleic acid sequences of all of these T2Rs may be found in these earlier patent applications. These human T2Rs were each individually transiently transfected into HEK293 cells that stably express the promiscuous G protein G16g44 and functional assays were effected using these receptors as disclosed in these same patent applications. […] The ligands were used at EC80 concentration levels. The list of bitter ligands utilized and the tested ligand concentrations are contained in Table 5 of this example.
Relating to the foregoing, FIG. 5 contains experimental results wherein Compound C was tested with different agonist compounds. The inhibition activity is represented by the reduction of receptor activity in the presence of Compound C. […] These 13 hT2Rs are hT2R3, 7, 10, 14, 16, 44, 51, 55, 61, 63, 64, 65, and 71.

hT2R10 = hT2R10 (Homo sapiens (Human), UniProt Q9NYW0); assay: hT2R panel inhibition, transient HEK293 G16g44, agonist Strychnine 50 μM; type: cell-based; settings: HEK293, read-out: screening result against bitter receptor 10, compound at 25 μM; receptor activated to EC80 with the corresponding agonist
hT2R14 [2] = target: T1, hT2R14; assay: hT2R panel inhibition, transient HEK293 G16g44, agonist Aristolochic Acid 2 μM; type: cell-based; settings: HEK293, compound at 25 μM; receptor activated to EC80 with the corresponding agonist; read-out: screening result against bitter receptor 14
Summary of the method: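 Each hT2R was transiently transfected into HEK293 cells stably expressing G16g44 and assayed functionally for inhibition of agonist response. Agonists were applied at EC80: andrographolide at 0.5 mM for hT2R8 and aristolochic acid at 2 μM for hT2R14.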

hT2R16 = hT2R16 (Homo sapiens (Human), UniProt Q9NYV7); assay: hT2R panel inhibition, transient HEK293 G16g44, agonist Salicin 1 mM; type: cell-based; settings: HEK293, compound at 25 μM; receptor activated to EC80 with the corresponding agonist; read-out: screening result against bitter receptor 16
Summary of the method: as §1

hT2R44 = assay: hT2R panel inhibition, transient HEK293 G16g44, agonist Denatonium 0.5 μM; type: cell-based, human; settings: compound at 25 μM; receptor activated to EC80 with the corresponding agonist
Summary of the method: as §1

hT2R51 = hT2R51 (Homo sapiens (Human), UniProt P59533); assay: hT2R panel inhibition, transient HEK293 G16g44, agonist Prop 2.5 μM; type: cell-based; settings: HEK293, compound at 25 μM; receptor activated to EC80 with the corresponding agonist; read-out: screening result against bitter receptor 51
Summary of the method: as §1

hT2R54 = assay: hT2R panel inhibition, transient HEK293 G16g44, agonist Ranitidine 5 mM; type: cell-based, human; settings: compound at 25 μM; receptor activated to EC80 with the corresponding agonist
Summary of the method: as §1

hT2R55 = assay: hT2R panel inhibition, transient HEK293 G16g44, agonist Cinchonine 150 μM; type: cell-based, human; settings: compound at 25 μM; receptor activated to EC80 with the corresponding agonist
Summary of the method: as §1

hT2R61 = hT2R61 (Homo sapiens (Human), UniProt P59537); assay: hT2R panel inhibition, transient HEK293 G16g44, agonist Aristolochic Acid 25 nM; type: cell-based; settings: HEK293, compound at 25 μM; receptor activated to EC80 with the corresponding agonist; read-out: screening result against bitter receptor 61
Summary of the method: as §1

hT2R63 = assay: hT2R panel inhibition, transient HEK293 G16g44, agonist Caffeine 1 mM or Andrographolide 100 μM; type: cell-based, human; settings: compound at 25 μM; receptor activated to EC80 with the corresponding agonist
Summary of the method: as §1

hT2R64 = hT2R64 (Homo sapiens (Human), UniProt P59538); assay: hT2R panel inhibition, transient HEK293 G16g44, agonist Aristolochic Acid 1 μM; type: cell-based; settings: HEK293, compound at 25 μM; receptor activated to EC80 with the corresponding agonist; read-out: screening result against bitter receptor 64
Summary of the method: as §1

hT2R65 = assay: hT2R panel inhibition, transient HEK293 G16g44, agonist Oleuropein 1 mM; type: cell-based, human; settings: compound at 25 μM; receptor activated to EC80 with the corresponding agonist
Summary of the method: as §1

hT2R67 = assay: hT2R panel inhibition, transient HEK293 G16g44, agonist Andrographolide 5 μM; type: cell-based, human; settings: compound at 25 μM; receptor activated to EC80 with the corresponding agonist
Summary of the method: as §1

hT2R71 = hT2R71 (Homo sapiens (Human), UniProt P59536); assay: hT2R panel inhibition, transient HEK293 G16g44, agonist Picric Acid 10 μM; type: cell-based; settings: HEK293, compound at 25 μM; receptor activated to EC80 with the corresponding agonist; read-out: screening result against bitter receptor 71
Summary of the method: as §1

hT2R75 = hT2R75 (Homo sapiens (Human), UniProt P59540); assay: hT2R panel inhibition, transient HEK293 G16g44, agonist Strychnine 1 μM; type: cell-based; settings: HEK293, read-out: screening result against bitter receptor 75, compound at 25 μM; receptor activated to EC80 with the corresponding agonist
Sequence of hT2R75 (P59540 whole entry): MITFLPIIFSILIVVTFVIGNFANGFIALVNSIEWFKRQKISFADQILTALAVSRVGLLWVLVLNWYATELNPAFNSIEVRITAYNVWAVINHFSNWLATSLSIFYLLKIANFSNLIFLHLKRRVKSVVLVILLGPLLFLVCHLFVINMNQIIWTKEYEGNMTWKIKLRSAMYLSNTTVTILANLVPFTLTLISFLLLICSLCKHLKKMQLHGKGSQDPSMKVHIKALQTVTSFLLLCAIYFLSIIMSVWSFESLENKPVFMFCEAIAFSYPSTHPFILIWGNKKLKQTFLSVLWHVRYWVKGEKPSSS

T1 sequence (Q9NYV8 whole entry): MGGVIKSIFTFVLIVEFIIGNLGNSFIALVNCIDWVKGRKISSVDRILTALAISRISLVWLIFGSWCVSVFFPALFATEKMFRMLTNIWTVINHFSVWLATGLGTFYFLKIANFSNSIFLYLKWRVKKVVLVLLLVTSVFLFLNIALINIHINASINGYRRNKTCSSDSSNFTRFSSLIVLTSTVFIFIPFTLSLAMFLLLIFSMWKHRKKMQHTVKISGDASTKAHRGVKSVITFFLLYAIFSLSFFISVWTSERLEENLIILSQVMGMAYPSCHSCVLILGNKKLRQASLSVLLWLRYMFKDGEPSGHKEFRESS
Sequence of hT2R64 (P59538 whole entry): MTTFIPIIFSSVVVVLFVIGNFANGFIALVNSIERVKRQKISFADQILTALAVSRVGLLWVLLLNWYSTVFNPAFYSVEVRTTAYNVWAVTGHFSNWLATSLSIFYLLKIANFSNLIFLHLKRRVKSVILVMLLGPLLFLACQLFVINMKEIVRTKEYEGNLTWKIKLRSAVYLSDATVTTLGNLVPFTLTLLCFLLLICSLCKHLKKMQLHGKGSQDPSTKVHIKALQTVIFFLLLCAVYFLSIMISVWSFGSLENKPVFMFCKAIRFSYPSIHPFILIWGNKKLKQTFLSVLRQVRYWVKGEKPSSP
Sequence of hT2R7 (Q9NYW3 whole entry): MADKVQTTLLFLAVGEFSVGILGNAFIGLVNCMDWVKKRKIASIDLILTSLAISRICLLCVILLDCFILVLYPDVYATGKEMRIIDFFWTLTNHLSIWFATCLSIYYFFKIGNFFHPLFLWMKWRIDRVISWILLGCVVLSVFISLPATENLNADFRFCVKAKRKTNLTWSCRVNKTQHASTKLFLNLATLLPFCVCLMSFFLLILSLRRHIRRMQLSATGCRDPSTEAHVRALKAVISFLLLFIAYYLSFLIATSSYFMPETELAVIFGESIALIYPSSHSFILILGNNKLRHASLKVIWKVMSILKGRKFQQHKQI
Sequence of hT2R3 (Q9NYW6 whole entry): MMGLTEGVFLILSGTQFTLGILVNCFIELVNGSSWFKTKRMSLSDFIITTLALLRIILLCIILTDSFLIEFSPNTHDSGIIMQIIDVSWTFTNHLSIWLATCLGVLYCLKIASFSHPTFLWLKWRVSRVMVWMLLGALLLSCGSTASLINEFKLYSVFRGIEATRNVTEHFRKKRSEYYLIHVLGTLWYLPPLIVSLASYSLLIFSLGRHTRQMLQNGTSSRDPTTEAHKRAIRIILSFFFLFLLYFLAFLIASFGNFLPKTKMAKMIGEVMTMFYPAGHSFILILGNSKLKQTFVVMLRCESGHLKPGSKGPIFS
Sequence of hT2R5 (Q9NYW4 whole entry): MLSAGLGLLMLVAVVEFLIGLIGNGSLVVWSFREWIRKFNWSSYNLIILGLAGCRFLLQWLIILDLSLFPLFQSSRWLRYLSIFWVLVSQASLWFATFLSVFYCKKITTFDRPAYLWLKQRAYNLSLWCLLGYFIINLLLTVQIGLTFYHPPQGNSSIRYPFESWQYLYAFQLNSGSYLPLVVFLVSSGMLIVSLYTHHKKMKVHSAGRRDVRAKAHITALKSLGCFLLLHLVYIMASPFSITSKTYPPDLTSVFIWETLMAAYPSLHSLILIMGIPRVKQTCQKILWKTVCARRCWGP
Sequence of hT2R4 (Q9NYW5 whole entry): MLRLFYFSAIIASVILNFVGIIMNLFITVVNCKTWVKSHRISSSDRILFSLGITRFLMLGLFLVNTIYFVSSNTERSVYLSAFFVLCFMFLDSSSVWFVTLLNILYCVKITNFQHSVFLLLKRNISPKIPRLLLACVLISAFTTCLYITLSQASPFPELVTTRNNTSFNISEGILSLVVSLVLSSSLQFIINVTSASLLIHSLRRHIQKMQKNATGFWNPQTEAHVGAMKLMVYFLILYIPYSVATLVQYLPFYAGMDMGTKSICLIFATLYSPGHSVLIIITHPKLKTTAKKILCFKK
Sequence of hT2R71 (P59536 whole entry): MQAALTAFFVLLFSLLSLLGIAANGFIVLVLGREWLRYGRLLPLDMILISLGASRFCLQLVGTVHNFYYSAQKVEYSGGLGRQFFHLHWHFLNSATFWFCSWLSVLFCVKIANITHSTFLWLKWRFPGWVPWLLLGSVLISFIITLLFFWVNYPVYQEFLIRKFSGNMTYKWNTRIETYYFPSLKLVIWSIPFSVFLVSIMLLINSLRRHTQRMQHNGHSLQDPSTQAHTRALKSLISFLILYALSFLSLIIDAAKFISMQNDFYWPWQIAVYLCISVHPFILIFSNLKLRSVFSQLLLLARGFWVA
Sequence of hT2R10 (Q9NYW0 whole entry): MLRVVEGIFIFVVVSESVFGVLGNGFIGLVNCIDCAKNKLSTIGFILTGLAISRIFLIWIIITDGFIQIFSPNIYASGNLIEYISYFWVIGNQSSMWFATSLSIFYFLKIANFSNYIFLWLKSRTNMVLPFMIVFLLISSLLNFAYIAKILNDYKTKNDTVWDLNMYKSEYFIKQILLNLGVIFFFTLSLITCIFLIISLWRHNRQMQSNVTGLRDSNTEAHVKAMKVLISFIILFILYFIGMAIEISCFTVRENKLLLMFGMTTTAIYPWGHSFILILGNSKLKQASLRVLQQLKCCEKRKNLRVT
Sequence of hT2R16 (Q9NYV7 whole entry): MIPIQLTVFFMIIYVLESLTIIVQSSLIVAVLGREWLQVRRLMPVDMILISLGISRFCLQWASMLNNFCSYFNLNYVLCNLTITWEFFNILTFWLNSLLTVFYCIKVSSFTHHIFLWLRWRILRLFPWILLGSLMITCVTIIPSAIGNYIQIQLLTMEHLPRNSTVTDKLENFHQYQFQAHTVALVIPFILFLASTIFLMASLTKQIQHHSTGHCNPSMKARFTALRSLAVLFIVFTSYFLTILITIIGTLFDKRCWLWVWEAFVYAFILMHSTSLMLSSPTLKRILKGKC
Sequence of hT2R9 (Q9NYW1 whole entry): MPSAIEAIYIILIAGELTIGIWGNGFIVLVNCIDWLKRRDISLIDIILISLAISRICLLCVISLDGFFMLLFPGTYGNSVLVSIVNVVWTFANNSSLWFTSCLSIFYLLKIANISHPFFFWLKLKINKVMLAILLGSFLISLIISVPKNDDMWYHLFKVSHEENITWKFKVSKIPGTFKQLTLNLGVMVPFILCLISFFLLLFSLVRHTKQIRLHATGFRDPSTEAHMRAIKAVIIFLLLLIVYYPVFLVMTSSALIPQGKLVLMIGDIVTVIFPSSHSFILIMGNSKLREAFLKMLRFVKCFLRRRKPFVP
Sequence of hT2R61 (P59537 whole entry): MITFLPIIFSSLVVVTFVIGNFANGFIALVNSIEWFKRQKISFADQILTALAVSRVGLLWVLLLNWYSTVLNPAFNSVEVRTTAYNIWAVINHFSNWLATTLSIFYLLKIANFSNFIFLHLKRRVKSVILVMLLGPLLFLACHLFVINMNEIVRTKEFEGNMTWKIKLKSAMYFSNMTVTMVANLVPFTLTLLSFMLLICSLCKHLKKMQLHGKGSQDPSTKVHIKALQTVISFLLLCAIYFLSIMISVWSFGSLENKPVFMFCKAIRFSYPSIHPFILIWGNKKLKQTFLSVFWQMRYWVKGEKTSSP
Sequence of hT2R51 (P59533 whole entry): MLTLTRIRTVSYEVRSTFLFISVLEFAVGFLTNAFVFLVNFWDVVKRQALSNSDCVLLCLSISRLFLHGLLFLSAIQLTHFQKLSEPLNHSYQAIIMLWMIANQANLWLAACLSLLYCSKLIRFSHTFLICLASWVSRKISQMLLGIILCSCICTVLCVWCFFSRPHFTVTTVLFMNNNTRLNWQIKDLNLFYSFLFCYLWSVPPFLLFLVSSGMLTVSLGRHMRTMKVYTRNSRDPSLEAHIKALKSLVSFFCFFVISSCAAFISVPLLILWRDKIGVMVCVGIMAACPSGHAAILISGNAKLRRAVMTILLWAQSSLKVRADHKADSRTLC

Row | Structure (SMILES) | IC50 (hT2R14 [1]; Table C, read-out: hT2R14 IC50) | inhibition at 25 µM (hT2R3) | inhibition at 25 µM (hT2R4) | inhibition at 25 µM (hT2R5) | inhibition at 25 µM (hT2R7) | inhibition at 25 µM (hT2R9) | inhibition at 25 µM (hT2R10) | inhibition at 25 µM (hT2R14 [2]) | inhibition at 25 µM (hT2R16) | screening result against bitter receptor 44 (hT2R44) | screening result against bitter receptor 54 (hT2R54) | screening result against bitter receptor 55 (hT2R55) | inhibition at 25 µM (hT2R61) | screening result against bitter receptor 63 (hT2R63) | inhibition at 25 µM (hT2R64) | screening result against bitter receptor 65 (hT2R65) | screening result against bitter receptor 67 (hT2R67) | inhibition at 25 µM (hT2R71) | inhibition at 25 µM (hT2R75) | also measured
1 | O=C(O)c1ccc(CN(Cc2cccc(F)c2)S(=O)(=O)c2ccccc2)cc1 [Example 5-104, 4-((N-(3-fluorobenzyl)phenylsulfonamido)methyl)-benzoic acid] | 406 nM | 40 to 60% | 40 to 60% | 40 to 60% | 40 to 60% | 20 to 40% | 40 to 60% | > 80% | 20 to 40% | +++ (60% to 80% inhibition = +++) | + (20% to 40% inhibition = +) | +++ (60% to 80% inhibition = +++) | > 80% | ++ (40% to 60% inhibition = ++) | > 80% | +++ (60% to 80% inhibition = +++) | ++ (40% to 60% inhibition = ++) | 60 to 80% | 40 to 60% | inhibition at 25 µM (hT2R51): 20 to 40%
2 | Cc1ccc(S(=O)(=O)N(Cc2ccccc2)CC2CCC(C(=O)O)CC2)cc1 (centres unmarked) [Example 5-11, 4-((N-benzyl-4-methylphenylsulfonamido)methyl)cyclohexane-carboxylic acid] |  | 60 to 80% | 60 to 80% | 20 to 40% | 40 to 60% | 20 to 40% | 40 to 60% | > 80% | 40 to 60% | +++ (60% to 80% inhibition = +++) |  | ++++ (80% or greater inhibition = ++++) | > 80% | +++ (60% to 80% inhibition = +++) | 40 to 60% | + (20% to 40% inhibition = +) | + (20% to 40% inhibition = +) | 60 to 80% | 40 to 60% | IC50 (hT2R14 [1]; read-out: IC50 on hT2R14 bitter receptor): 14 nM
3 | COc1ccccc1CN(Cc1ccc(C(=O)O)cc1)S(=O)(=O)c1ccccc1 [Example 5-100, 4-((N-(2-methoxybenzyl)phenylsulfonamido)methyl) benzoic acid] | 1290 nM | 20 to 40% | 40 to 60% | 20 to 40% | 20 to 40% | 20 to 40% | 20 to 40% | 40 to 60% | 20 to 40% | +++ (60% to 80% inhibition = +++) | + (20% to 40% inhibition = +) | +++ (60% to 80% inhibition = +++) | 60 to 80% | + (20% to 40% inhibition = +) | > 80% | ++ (40% to 60% inhibition = ++) |  | 60 to 80% | 20 to 40% | 
